This assay has as its target T1, proteasomal β5 subunit (Hc-PBS-5) (Haemonchus contortus, UniProt A0A7I5E5W5).
T1 sequence (A0A7I5E5W5 65-284): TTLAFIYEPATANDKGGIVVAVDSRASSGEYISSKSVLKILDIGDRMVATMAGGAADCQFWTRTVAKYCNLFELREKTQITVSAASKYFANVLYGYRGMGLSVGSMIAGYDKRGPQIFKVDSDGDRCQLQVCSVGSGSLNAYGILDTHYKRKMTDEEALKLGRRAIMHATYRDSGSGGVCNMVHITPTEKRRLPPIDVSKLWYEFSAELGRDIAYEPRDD
The assay is classed as biochemical.

Consider `CC(C)C[C@H](NC(=O)[C@H](Cc1ccccc1)NC(=O)c1cnccn1)B(O)O` [bortezomib], for which the IC50 (in general, the concentration that gives 50% inhibition) came out at 622 nM.

Values taken from article PMC10015785, “A proteasomal β5 subunit of Haemonchus contortus with a role in the growth, development and life span” (Parasites & Vectors, 2023).
